Counter-ions that a name gives are not always drawn. Like-named read-outs stand apart in the source and are kept apart here.
Legend:
mGFAP protein [1] = test: GFAP protein levels by ELISA in 172.9 cells treated with betulinic acid derivatives; assay type: cell-based, mouse; conditions: 7 days of treatment, 0-20 μM
Protocol: FIG. 9A-D are graphs showing the effects of betulinic acid and betulinic acid derivatives on mGFAP protein levels in 172.9 cells after 7 days of treatment. In the graphs, ester and amide forms of various compounds are paired for comparison.
172.9 cells were used to test the effects of betulinic acid and betulinic acid derivatives on GFAP promoter activity and GFAP protein levels. Experiments were performed as previously described. Each of eight compounds (D-altroside (ester); D-altroside (amide); D-xyloside (ester); D-xyloside (amide); aglycon (ester); aglycon (amide); betulinic acid; 3-amino betulinic acid) was tested at a concentration of 0 μM, 0.1 μM, 0.5 μM, 1 μM, 5 μM, 10 μM, 15 μM, and 20 μM. […] Toxicity of the compounds was also evaluated.

[2] = system: 2.2 kb human GFAP promoter; test: hGFAP promoter luciferase activity assay in 172.9 cells (primary astrocytes from dual luciferase transgenic mice); assay type: cell-based; conditions: for effect on GFAP promoter activity (luciferase expression driven by the hGFAP promoter): 172.9 cells, 3 days of treatment; for effect on GFAP promoter activity (luciferase expression driven by the hGFAP promoter) / reductions in luciferase activity: 0-20 μM; for reductions in luciferase activity: quaternary screen, 10 days of exposure; for % GFAP reductions, luciferace expression from hGFAP promoter: tertiary screen, 48 hr exposure, at the MTDcc
Protocol: Cell-based assays were performed as four different screens using enriched cortical primary astrocyte cultures developed from transgenic mice expressing both firefly and Renilla luciferase reporter genes were generated. Briefly, the'firefly luciferase was placed under the control of a 2.2 kb human GFAP promoter to monitor GFAP transcription, and the Renilla luciferase was placed under the control of a 0.5 kb human GAPDH (glyceraldehyde 3-phosphate dehydrogenase) promoter to monitor transcription of a housekeeping gene for signal normalization. See section B, below for more detail regarding the development of transgenic mouse strains. Cells used in the following examples (e.g., the cortical primary astrocyte cells termed “172.9 cells,” described below) were developed from the transgenic mice described in section B.
Briefly, the cortices from individual pups were freed of meninges and placed into DMEM (Gibco) without serum, mechanically disassociated into single cells, suspended in medium containing DMEM supplemented with 10% fetal bovine serum (FBS; Hyclone), 100 U/ml penicillin, 100 μg/ml streptomycin (Gibco), seeded into T25 flasks (one brain per flask), and maintained in a humidified 5% CO2 atmosphere at 37° C. […] Medium was changed every 3 days. At 14-16 days in vitro (DIV), the flasks were shaken overnight at 200 rpm to remove oligodendrocytes and microglia. […] The cells were then suspended in DMEM with 10% FBS and plated (“passage 2”) on either 35 mm dishes, […], or 96-well plates (Corning) as needed. Cells were grown for varying days in vitro (DIV) at passage 2 and then used for various experiments. Tissue culture dishes and plates were pre-coated with 100 μg/ml poly-L-lysine for 1 h in a humidified 5% CO2 atmosphere at 37° C., and then allowed to air dry. […] Cell density was measured with the Vi-CELL cell counter (Beckman Coulter) or hemocytometer by the trypan-blue exclusion method. For simplicity, cells are referred to as “172.9 cells.”
Briefly, 172.9 cells were plated on poly-L coated white 96-well plates at a density of 5000 cells per well, in 100 μl DMEM with 10% FBS. At twenty-four hours, cells were exposed to the different compounds at a final concentration of 10 μM (diluted from a 50 mM stock) prepared in new medium (DMEM with 10% FBS). […] After exposure to compounds, luciferase activity in the primary and secondary screenings was determined by adding 30 μl of Bright-Glo™ reagent (Promega) to the 100 μl of media and cells of each well in the white 96-well plates with the Biomek® FX liquid handler (Beckman Coulter). After incubation for 1 minute at room temperature, signals were measured with the Safire 2 plate reader using Magellan™ software (Tecan). Other specific methods and equipment are known in the art and can be used to measure luciferase expression levels. This assay method is termed the “hGFAP promoter luciferase activity assay.” A reduction in luciferase expression as determined by this assay is termed “hGFAP promoter luciferase reduction.” For some assays that were aimed at confirming results of the initial screens, the same amount of Bright-Glo™ reagent was applied to each well in 96-well plates and signals were detected with the GloRunner™ Microplate Luminometer (Turner Biosystems) using the Dual-Glo® luciferase assay according to the manufacturer's recommendations (E1910, Promega).
In the secondary screen, cells were plated in a 96-well plate as described above for the primary screen.
Some compounds were unavailable outside of the library collections, and could not be further tested.
Each compound and concentration was analyzed in quadruplicate wells.
(§1) Compounds were tested at eight different concentrations ranging from 0-20 μM. In addition, GFAP protein levels were measured using a sandwich ELISA, which has greater sensitivity and is more accurate than the cell-based ELISA used in the primary screens.

mGFAP protein [3] = test: cell-based GFAP protein level assay (cell-based ELISA) in 172.9 cells; set-up: species or system mouse; conditions: for % GFAP reductions, mGFAP protein via ELISA: tertiary screen, 48 hr exposure, at the MTDcc
GFAP protein = test: sandwich ELISA for GFAP protein in 172.9 cells, quaternary screen; assay type: cell-based, mouse; conditions: 10 days of exposure, 0-20 μM
Protocol: as §1
The extracts were harvested from each well and the total GFAP content of each well was measured by a sandwich ELISA as described below. Briefly, separate microtiter plates were coated with SMI-26 anti-GFAP mouse monoclonal antibody cocktail (1:1000, Covance, diluted in PBS) overnight at 4° C., rinsed 3 times in PBS, and then blocked with Blotto (5% nonfat milk/PBS) for 2 h at RT. Samples from the astrocyte cell lysate (20 μl per well) were loaded onto the plates and brought up to 100 μl with 0.5% Triton X-100/PBS (a buffer used for subsequent antibody incubations and rinses), and incubated with a rabbit polyclonal anti-GFAP antibody (1:5000, DAKO) overnight at 4° C. The plates were rinsed three times and then incubated with HRP-conjugated goat anti-rabbit IgG (1:30,000, Sigma) for 2 h at RT. After three final rinses, peroxidase activity was detected using the Super Signal Femto maximum Sensitivity Substrate (Pierce) with a GloRunner microplate luminometer (Turner Biosystems). The GFAP content in the samples was determined from a standard curve generated using serial dilutions of purified GFAP (Research Diagnostics).

172.9 cells = test: cell viability (CellTiter-Glo) / MTDcc in 172.9 cells
Protocol: Criterion for acceptable viability was >70% survival.
Cell viability was determined as follows. After exposure to each compound (duplicate wells per compound), 50 μl of CellTitier-Glo Luminescent Cell Viability Assay reagent (G7571, Promega) was added to the 100 μl of media present in each well, and the luminescent signal (reflecting intracellular ATP level) was detected with either a Victor 3-V plate reader (Perkin Elmer) or GloRunner Microplate Luminometer (Turner Biosystems). Cell viability was expressed as a percent of non-treated control cells.
A dose-response curve was created for each compound (0.1, 0.5, 1, 5, 10, 15, 20 μM) using 48 hr exposures. The MTDcc (“maximum tolerated dose—cell culture”) indicates the highest concentration that retained at least 70% cell viability. Each compound and concentration was analyzed in quadruplicate wells. EGCDG: epigallocatechin 3,5-digallate; NPPB: 5-nitro-2-phenylproplyaminobenzoic acid. As used herein, MTDcc refers to the MTD as determined by this assay under the above conditions.

[4] = secondary screen, 10 μM, 48 hours
[5] = tertiary screen, 48 hr exposure, 0.1-20 μM, highest concentration that retained at least 70% cell viability

| Compound | effect on GFAP protein levels (mGFAP protein [1]) | % GFAP reductions, mGFAP protein via ELISA (mGFAP protein [3]) [%] | % GFAP reductions, luciferace expression from hGFAP promoter [2] [%] | MTDcc (172.9 cells; mouse, 48 h) [µM] | further results |
| --- | --- | --- | --- | --- | --- |
| C=C(C)[C@@H]1CC[C@]2(C(=O)O)CC[C@]3(C)[C@H](CCC4[C@@]5(C)CC[C@H](N)C(C)(C)C5CC[C@]43C)C12 (stereo partly drawn) [3-amino betulinic acid, (3S)-Aminobetulinic acid] | reduced GFAP protein levels more than the ester form |  |  |  | effect on GFAP promoter activity (luciferase expression driven by the hGFAP promoter) [2]: decrease in GFAP promoter activity |
| C=C(C)[C@@H]1CC[C@]2(C(=O)O)CC[C@]3(C)[C@H](CCC4[C@@]5(C)CC[C@H](OC(=O)CN(OC)[C@@H]6OC(CO)[C@@H](O)C(O)C6O)C(C)(C)C5CC[C@]43C)C12 (stereo partly drawn) [D-altroside (ester), (3S)—O—(N-Methoxy-N-β-D-altrosylglycyl)betulinic acid] | reduced GFAP protein levels more than the amide form |  |  |  | effect on GFAP promoter activity (luciferase expression driven by the hGFAP promoter) [2]: more dramatic decrease in GFAP promoter activity than the amide form |
| C=C(C)[C@@H]1CC[C@]2(C(=O)O)CC[C@]3(C)[C@H](CCC4[C@@]5(C)CC[C@H](OC(=O)CN(OC)[C@@H]6OC[C@@H](O)C(O)C6O)C(C)(C)C5CC[C@]43C)C12 (stereo partly drawn) [D-xyloside (ester), (3S)—O—(N-Methoxy-N-β-D-xylosylglycyl)betulinic acid] | reduced GFAP protein levels more than the amide form |  |  |  | effect on GFAP promoter activity (luciferase expression driven by the hGFAP promoter) [2]: more dramatic decrease in GFAP promoter activity than the amide form |
| O=C(Oc1cc(O)cc2c1C[C@@H](OC(=O)c1cc(O)c(O)c(O)c1)[C@@H](c1cc(O)c(O)c(O)c1)O2)c1cc(O)c(O)c(O)c1 [EGCDG, epigallocatechin 3,5-digallate] |  | 4.5 | 57 |  | suppression in the protein assay (mGFAP protein [3]; [4]): significant suppression; reductions in GFAP protein levels (GFAP protein): consistent reductions; reductions in luciferase activity [2]: consistent reductions; suppression in the promoter assay [2, 4]: significant suppression; MTDcc (172.9 cells): 17.5 µM; cell viability (172.9 cells): acceptable cell viability |
| C=C(C)[C@@H]1CC[C@]2(C(=O)O)CC[C@]3(C)[C@H](CCC4[C@@]5(C)CC[C@H](NC(=O)CNOC)C(C)(C)C5CC[C@]43C)C12 (stereo partly drawn) [aglycon (amide), (3S)—N—(N′-Methoxyglycyl)aminobetulinic acid] | reduced GFAP protein levels more than the ester form |  |  |  |  |
| C=C(C)[C@@H]1CC[C@]2(C(=O)O)CC[C@]3(C)[C@H](CCC4[C@@]5(C)CC[C@H](OC(=O)CNOC)C(C)(C)C5CC[C@]43C)C12 (stereo partly drawn) [aglycon (ester), (3S)—O—(N-Methoxyglycyl)betulinic acid] | minimal effect |  |  |  | effect on GFAP promoter activity (luciferase expression driven by the hGFAP promoter) [2]: decreased luciferase expression |
| CN(C)CCC=C1c2ccccc2CCc2ccccc21 [amitriptyline] |  | 12.2 | 63 | >20 | reductions in GFAP protein levels (GFAP protein): consistent reductions; reductions in luciferase activity [2]: consistent reductions; cell viability (172.9 cells): acceptable cell viability |
| Cc1nc2sccn2c(=O)c1CCN1CCC(=C(c2ccc(F)cc2)c2ccc(F)cc2)CC1 [ritanserin] |  | 9.6 | 29 | 12.5 |  |
| CC(NCCc1ccc(O)cc1)C(O)c1ccc(O)cc1 (centres unmarked) [ritodrine] |  | 5.2 | 16 | >20 |  |
| COC(=O)[C@H](O)[C@H]1C(C)(C)[C@H](OC(C)=O)[C@@H]2CC3=C4CC(=O)O[C@@H](c5ccoc5)[C@]4(C)CC[C@@H]3[C@@]1(C)C2=O [swietenolide-3-acetate] |  | 0.7 | 8 |  | MTDcc (172.9 cells): >20 µM |
| CC/C(=C(\c1ccccc1)c1ccc(OCCN(C)C)cc1)c1ccccc1 [tamoxifen citrate] |  | 21.6 | 52 | 7.5 |  |
| CSc1ccc2c(c1)N(CCC1CCCCN1C)c1ccccc1S2 (centres unmarked) [thioridazine] |  | 17.7 | 37 | 5 |  |
| COc1ccc(C(=O)O)cc1OC [veratic acid] |  | −0.8 | 6 |  | MTDcc (172.9 cells; [5]): >20 µM |
| methylnorlichexanthone |  | 0.6 | 10 |  | MTDcc (172.9 cells; [5]): >20 µM |
| pyrogallin |  | 3.3 | 22 |  | MTDcc (172.9 cells; [5]): >20 µM |

From patent publication US8372808B2, “Suppression of glial fibrillary acidic protein” (Wisconsin Alumni Research Foundation, priority 2008, dated 2013)
